In paper PMC7979524 (Pharmacological research, 2021):

Tests used:
[1] = target: T1, adenosine A2B receptor (Homo sapiens, UniProt P29275); format: cell-based
T1 sequence (P29275 1-332): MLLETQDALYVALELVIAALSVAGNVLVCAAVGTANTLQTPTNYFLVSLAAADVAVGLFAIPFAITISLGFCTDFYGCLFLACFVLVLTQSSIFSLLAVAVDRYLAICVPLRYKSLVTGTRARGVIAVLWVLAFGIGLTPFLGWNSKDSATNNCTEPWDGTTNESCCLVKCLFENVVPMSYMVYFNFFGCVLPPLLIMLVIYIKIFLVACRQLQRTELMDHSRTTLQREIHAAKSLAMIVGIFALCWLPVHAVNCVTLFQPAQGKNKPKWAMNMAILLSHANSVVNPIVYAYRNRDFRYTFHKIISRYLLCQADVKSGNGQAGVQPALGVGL

[2] = target: adenosine A2A receptor (Homo sapiens, UniProt P29274); format: cell-based
Sequence of adenosine A2A receptor (P29274 whole entry): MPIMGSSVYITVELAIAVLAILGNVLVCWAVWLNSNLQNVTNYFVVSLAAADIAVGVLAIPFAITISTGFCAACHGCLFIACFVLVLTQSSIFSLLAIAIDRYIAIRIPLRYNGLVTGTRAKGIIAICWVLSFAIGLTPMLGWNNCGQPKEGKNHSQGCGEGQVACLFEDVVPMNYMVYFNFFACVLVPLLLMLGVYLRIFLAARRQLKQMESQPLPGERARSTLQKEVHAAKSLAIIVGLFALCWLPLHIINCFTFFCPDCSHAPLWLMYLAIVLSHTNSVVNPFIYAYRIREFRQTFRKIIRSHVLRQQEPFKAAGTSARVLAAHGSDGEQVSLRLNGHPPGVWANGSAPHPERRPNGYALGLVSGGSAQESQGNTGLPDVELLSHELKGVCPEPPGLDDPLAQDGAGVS

Question: Which Ki [1] does the source give for COc1cc(/C=C\C(=O)CC(=O)/C=C/c2ccc(O)c(OC)c2)ccc1O [CTCUR, cis-trans curcumin] here?
Answer: 6.7 µM

Question: What about the Ki [2] of the same compound?
Answer: 5.1 µM
